The source of these data is patent publication US20070037800A1, “Method of treating neurological disorders using clotrimazole and derivatives thereof” (EnVivo Pharmaceuticals, Inc., priority 2005, published 2007).

The subject of data set [1] is Kainic acid lesion in C57BL/6 mice. Kind of data set: Mouse model of acute neurodegeneration: kainic acid lesion volume. Particulars: KA 1.0 nmol i.s.; clotrimazole 2 mg/kg i.p. twice daily; vs KA+vehicle; P=0.010 (t test of difference in log[size]); two days after KA. It is filed as in vivo. Here is the method: To test the hypothesis that clotrimazole may be neuroprotective against KA induced excitatory damage in the brain, clotrimazole was compared to benzamide as a positive control in the mouse model. Three study groups (n=8-9) were tested: (1) C57BL/6 treated with KA 1.0 nmol (i.s.) left hemisphere+vehicle (i.p.); (2) KA 1.0 nmol i.s. left hemisphere+clotrimazole (2mg/kg) i.p. twice daily for duration of the study (including a single dose 1 hour before KA); and (3) KA 1.0 nmol i.s. left hemisphere+benzamide (160 mg/kg, i.p. 30 min before injection and 3.5 hrs after). Kainic Acid (K0250), clotrimazole (C6019) and Benzamide (150762) were purchased from Sigma and prepared as followed: Kainic Acid was dissolved in phosphate buffered saline (1×PBS, pH 7.4), pH to 7.4 using NaOH. […]
Two days after injection of KA the animals were anesthetized and transcardially perfused with ice cold phosphate buffered saline (0.1 M PBS, pH 7.4) containing 10% sucrose and then perfused with ice-cold 4% paraformaldehyde in 0.1M PBS, pH 7.4. […] The area of the lesion, indicated by the lack of staining when compared to the contralateral (intact) striatum/cortex, was measured in each series of sections (n=25-30) blindly by means of an image analysis program and the lesion volume was calculated by a stereological method (Cavalieri's estimator of volume corrected for over projection).

Data set [2] concerns R6/2 mice. Kind of data set: Cage climbing and rearing in R6/2 mice. Type of data set: in vivo, mouse. Particulars: for Cage climbing: 12 weeks. The text has this:
Cage climbing analysis involves filming a 10cm tall cylindrical cage into which an R6/2 (+/−drug) or WT mouse is placed. The mouse is allowed to move naturally ad libetum for a five minute session within the confines of the cage, while events such as rearing occurrences, climbing time and latency to climb are documented. Cage climbing and rearing data were collected at 12 weeks in this study.

Data set [3] deals with R6/2 mice. The data set can be described thus: Gait analysis (DigiGait) in R6/2 mice. Type of data set: in vivo, mouse. The source says: Gait analysis was also collected at 12 weeks, which is a time when clear differences have previously been described between R6/2 and wild-type. In this analysis, the DigiGait™ Imaging System, which is non-invasive, robust, and quantitative—in that it generates numerous indices of gait dynamics and posture—was used. The system simplifies kinematic observations and analyses by imaging the animals from below a transparent treadmill. Software, including artificial intelligence algorithms, quantifies the characteristics of gait, including step sequence patterns, stride length, cadence, and paw placement. The output also includes swing and stance durations, as well as braking and propulsion durations. Indices computed by DigiGait convey information about sensory and motor inputs modulating gait and gait variability.

In data set [4] the test system is microglia activation. Particulars: has been shown; no source given; cited from earlier work.
The conditions of data set [5]: cited from earlier work.
[6] abbreviates: 4 and 20 mg/kg dosing, preliminary data.

As to `Clc1ccccc1C(c1ccccc1)(c1ccccc1)n1ccnc1` [clotrimazole], the Lesion volume result in data set [1] is reported as “statistically significant improvement”. The Cage climbing entry in data set [2] (4 mg/kg (low dose)) and in data set [2] (20 mg/kg (high dose)) was “Statistically significant improvement” throughout. In data set [2] (setting [6]), the “Motor performance by cage climbing and rearing” value is on record as “significantly improved the motor performance”. In data set [3] (setting [6]), the “Motor performance by gait analysis” value is “significantly improved the motor performance”. Besides, the Swing ratio score entry in data set [3] (gait analysis at 12 weeks) is “significantly improved”. Besides, the “Inhibition of microglia activation” value in data set [4] is given as “potent inhibitor”. Also, the “Known side effects in humans” value in data set [5] is “lethargy, apathy, and weakness”.
